Laboratory results: patent US6835722B1, “Pharmaceutical compositions and preparations for treatment of metabolic bone disease” (Yuyu Industrial Co., Ltd., priority 1999, dated 2004)

Columns and labels:
[1] = test system: female Sprague-Dawley white rats; assay: Bone remodeling index: serum osteocalcin and alkaline phosphatase; type: in vivo; conditions: single treatment (calcitriol 0.1 μg/kg or alendronate 1.0 mg/kg), 2 months; for concentration of serum osteocalcin: FIG. 5; for activity of alkaline phosphatase: FIG. 6
Method: (§1) Twelve week old matured female Sprague-Dawley white rats were supplied from Daehan Biolink Co., Ltd. (Seoul, Korea) and raised in a dean room of an animal experiment laboratory in a medical school of Seoul National University. The white rats were given a week to adapt by feeding them with normal feedstuff (Purina, chow diet) and then they were divided into 6 different groups wherein each group consisted of 10 white rats with similar weight distribution, and ovariostereses were performed to all of them. The white rats were allowed to freely drink water and have food under a standardized condition of 22° C., 50% humidity, 12 h dark/light cycle.
(§2) The amount of medication administered in each group is shown in the following table 1 and the control group was administered only with equal amount of palm oil and physiological saline used in the experimental groups.
(§3) After 2 months of the onset of the above medications, 24 h urine samples were collected from the white rats by using a metabolic cage, centrifuged and then stored at −70° C. The white rats under experiment were fasted overnight decapitated, and their blood samples were collected. White rats sera were then obtained by centrifuging those blood samples and were stored at −70° C. Tibiae were separated by ablation and fixed with 4% formalin at pH 7.4.
The activity level of serum alkaline phosphatase was measured by using Technicon autoanalyzer and the concentration of osteocalcin was measured by using a kit (OSCA test, Brahams, Berlin, Germany) which uses RIA method.

[2] = test system: female Sprague-Dawley white rats; assay: Bone histomorphometry: area of trabecular bone of tibia after ovariosteresis; type: in vivo; conditions: single treatment (calcitriol 0.1 μg/kg or alendronate 1.0 mg/kg), oral 5 days/week for 2 months after ovariosteresis; image analyzer, FIG. 2
Method: as §1, §2, §3

post-menopausal women = conditions: clinical study; cited from earlier work
[3] = test system: female Sprague-Dawley white rats; assay: Measurement of calcium excretion in urine (calcium/creatine of 24 h urine); type: in vivo; conditions: single treatment (calcitriol 0.1 μg/kg or alendronate 1.0 mg/kg), 2 months, FIG. 4
Method: as §1, §2, §3

[4] = test system: female Sprague-Dawley white rats; assay: Measurement of serum calcium concentration (Technicon autoanalyzer); conditions: single treatment (calcitriol 0.1 μg/kg or alendronate 1.0 mg/kg), 2 months, FIG. 3
Method: as §1, §2, §3

calcium excretion in urine (calcium/creatine, 24 h urine) [3]	serum calcium concentration [4]	Structure (SMILES)	concentration of serum osteocalcin [1]	activity of alkaline phosphatase [1]	area of trabecular bone [2]	reduction of rate of occurrence of new spinal fracture compared to placebo group (post-menopausal women)
		NCCCC(O)(P(=O)(O)O)P(=O)(O)O [alendronate, 4-amino-hydroxybutylidine-1,1-bisphosphonate]	decreased	decreased	drastically increased	about 48%
increased markedly	significant increase	C=C1/C(=C\C=C2/CCC[C@]3(C)[C@@H]([C@H](C)CCCC(C)(C)O)CC[C@@H]23)C[C@@H](O)C[C@@H]1O [calcitriol]	slight increase	slight increase	not increased	
